Laboratory results from paper doi:10.1101/157495v1 (biorxiv, 2017).

How the values were obtained:
AncCDT-1 = assay: isothermal titration calorimetry; type: binding, synthetic construct; conditions: 20 mM Na2HPO4, 150 mM NaCl, pH 7.4, 25 °C; on-column refolded protein
Ws0279 = Ws0279 (Wolinella succinogenes, UniProt Q7MAG0); assay: biochemical; conditions: read-out: ΔTM
Pu1068 = molecular target: T1, Pu1068 (Candidatus Pelagibacter communis, UniProt Q4FLR5); assay: intrinsic tryptophan fluorescence titration; type: binding
T1 sequence (Q4FLR5 19-255): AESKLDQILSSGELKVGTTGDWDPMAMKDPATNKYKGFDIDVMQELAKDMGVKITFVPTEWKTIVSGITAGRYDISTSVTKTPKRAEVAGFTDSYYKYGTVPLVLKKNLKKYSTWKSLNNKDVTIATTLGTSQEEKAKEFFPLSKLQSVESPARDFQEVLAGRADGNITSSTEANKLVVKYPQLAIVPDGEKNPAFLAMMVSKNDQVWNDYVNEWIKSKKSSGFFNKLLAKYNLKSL

Sequence of Ws0279 (Q7MAG0 24-258): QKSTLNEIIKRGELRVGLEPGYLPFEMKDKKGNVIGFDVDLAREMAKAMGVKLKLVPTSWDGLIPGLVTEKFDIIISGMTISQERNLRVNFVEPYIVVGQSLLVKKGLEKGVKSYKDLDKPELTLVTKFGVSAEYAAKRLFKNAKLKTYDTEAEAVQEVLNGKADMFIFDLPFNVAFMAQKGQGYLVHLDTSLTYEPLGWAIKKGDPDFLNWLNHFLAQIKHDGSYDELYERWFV

| Kd (Pu1068) | SMILES | Kd (AncCDT-1) | ΔTm at 10000 µM (Ws0279) |
| --- | --- | --- | --- |
| – | N=C(N)NCCC[C@H](N)C(=O)O [L-arginine] | 320 nM | – |
| – | N[C@@H](Cc1cnc[nH]1)C(=O)O [L-histidine] | 2300 nM | – |
| – | NCCCC[C@H](N)C(=O)O [L-lysine] | 6700 nM | 7.2 °C |
| – | NCCC[C@H](N)C(=O)O [L-ornithine] | 1200 nM | – |
| 530000 nM | C[N+]1(CCCS(=O)(=O)[O-])CCCCC1 [NDSB-221, 3-(1-methylpiperidinium-1-yl)propane-1-sulfonate] | – | – |
